Reference: ChEMBL document CHEMBL1201862, “PubChem BioAssay data set” (2004)
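1) Cells in 96-well plates. 2) Compound, 48 h, 5 concentrations. 3) Linear interpolation between surrounding doses. 4) Unreached endpoint = highest concentration. Abbreviation: GI50, concentration required for 50% inhibition of growth.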 Activity calls are given as the source filed them. Rule as the data show it: active = GI50 up to about 1.1 µM and inactive = higher.

How the values were obtained:
Assay in all cases: NCI anticancer screen, dose series, 48 h
HCC 2998 = test system: HCC 2998
SNB-75 = test system: SNB-75
NCI-H23 = test system: NCI-H23
ACHN = test system: ACHN
UACC-62 = test system: UACC-62
A549 = test system: A549
KM12 = test system: KM12
LOX IMVI = test system: LOX IMVI
SW-620 = test system: SW-620
SK-MEL-28 = test system: SK-MEL-28
OVCAR-3 = test system: OVCAR-3
HT-29 = test system: HT-29
RPMI-8226 = test system: RPMI-8226
K562 = test system: K562
SK-MEL-2 = test system: SK-MEL-2
SF-295 = test system: SF-295
MDA-MB-435 = test system: MDA-MB-435
Hs-578T = test system: Hs-578T

Compound	GI50 (HCC 2998)	GI50 (SNB-75)	GI50 (NCI-H23)	GI50 (ACHN)	GI50 (UACC-62)	GI50 (A549)	GI50 (KM12)	GI50 (LOX IMVI)	GI50 (SW-620)	GI50 (SK-MEL-28)	GI50 (OVCAR-3)	GI50 (HT-29)	GI50 (RPMI-8226)	GI50 (K562)	GI50 (SK-MEL-2)	GI50 (SF-295)	GI50 (MDA-MB-435)	GI50 (Hs-578T)
O=C(Nc1ccc(Cl)cc1Cl)C1C(=O)C(=O)N(c2ccc(Cl)cc2Cl)C1=O (centres undefined)	> 100 µM (inactive)	> 100 µM (inactive)	> 100 µM (inactive)	> 100 µM (inactive)	> 100 µM (inactive)	> 100 µM (inactive)	> 100 µM (inactive)	> 100 µM (inactive)	> 100 µM (inactive)	> 100 µM (inactive)	38.5 µM (inactive)	> 100 µM (inactive)	–	–	–	–	–	–
CS/C(=N\S(=O)(=O)c1ccc(Cl)cc1)NCCCCN/C(=N/S(=O)(=O)c1ccc(Cl)cc1)SC	> 100 µM (inactive)	> 10 µM (inactive)	–	> 100 µM (inactive)	> 100 µM (inactive)	–	–	> 100 µM (inactive)	> 100 µM (inactive)	95.3 µM (inactive)	> 100 µM (inactive)	> 100 µM (inactive)	> 100 µM (inactive)	> 100 µM (inactive)	> 100 µM (inactive)	> 100 µM (inactive)	> 100 µM (inactive)	–
Nc1nc(N)c2nc(CNc3ccc(C(=O)NC(CCC(=O)O)C(=O)O)cc3F)cnc2n1 (centres undefined)	–	16.1 µM (inactive)	< 0.01 µM (active)	< 0.01 µM (active)	< 0.01 µM (active)	< 0.01 µM (active)	< 0.01 µM (active)	< 0.01 µM (active)	< 0.01 µM (active)	> 100 µM (inactive)	45.1 µM (inactive)	< 0.01 µM (active)	< 0.01 µM (active)	< 0.01 µM (active)	> 59 µM (inactive)	< 0.01 µM (active)	< 0.01 µM (active)	> 100 µM (inactive)
C=CCC1(Sc2ccccn2)Sc2ccc3ccccc3c2-c2c(ccc3ccccc23)S1	> 100 µM (inactive)	55.7 µM (inactive)	> 100 µM (inactive)	> 100 µM (inactive)	> 100 µM (inactive)	> 100 µM (inactive)	> 100 µM (inactive)	> 100 µM (inactive)	> 100 µM (inactive)	> 100 µM (inactive)	> 100 µM (inactive)	> 100 µM (inactive)	–	> 100 µM (inactive)	> 100 µM (inactive)	> 100 µM (inactive)	> 100 µM (inactive)	> 100 µM (inactive)
Cc1nc(N)nc(N)c1CCCc1ccccc1	12.5 µM (inactive)	38.3 µM (inactive)	10.3 µM (inactive)	4.35 µM (inactive)	5.55 µM (inactive)	1.49 µM (inactive)	28.6 µM (inactive)	3.18 µM (inactive)	4.57 µM (inactive)	15.2 µM (inactive)	18.6 µM (inactive)	2.15 µM (inactive)	33.3 µM (inactive)	0.552 µM (active)	7.98 µM (inactive)	5.18 µM (inactive)	–	–
O=C([O-])C(O)C(O)C(O)C(O)C(=O)O.[K+] (centres undefined)	> 100 µM (inactive)	> 100 µM (inactive)	> 100 µM (inactive)	> 100 µM (inactive)	> 100 µM (inactive)	> 100 µM (inactive)	> 100 µM (inactive)	> 100 µM (inactive)	> 100 µM (inactive)	> 100 µM (inactive)	> 100 µM (inactive)	> 100 µM (inactive)	–	> 100 µM (inactive)	> 100 µM (inactive)	> 100 µM (inactive)	> 100 µM (inactive)	–
COc1cc(CNc2ccc(C(C)C)cc2)cc(OC)c1OC	–	23.7 µM (inactive)	20.1 µM (inactive)	21.8 µM (inactive)	16 µM (inactive)	13 µM (inactive)	18.5 µM (inactive)	16.2 µM (inactive)	–	27 µM (inactive)	–	16.9 µM (inactive)	14.4 µM (inactive)	8.57 µM (inactive)	13 µM (inactive)	–	–	–
